Test results reported in patent US20180118648A1, “5-SUBSTITUTED-5-HYDROXY-5-ARYL-3-OXO-PENTANOATE DERIVATIVES AND THEIR ENANTIOPURE FORMS” (OKINAWA INSTITUTE OF SCIENCE AND TECHNOLOGY SCHOOL …, priority 2015, published 2018).

Row | melting point | Structure (SMILES)
1 | 133 °C | CCOC(=O)/C=C(\C[C@@](O)(c1cccs1)C(F)(F)F)N[C@H](C)c1ccccc1 [Compound 5ac-1, (S)-ethyl 6,6,6-trifluoro-5-hydroxy-3-(((R)-1-phenylethyl)amino)-5-(thiophen-2-yl)hexa-2-enoate]
2 | 126 °C | CCOC(=O)/C=C(\C[C@@](O)(c1ccccc1)C(F)(F)F)N[C@H](C)c1ccccc1 [Compound 5a-1, (R)-ethyl 6,6,6,-trifluoro-5-hydroxy-5-phenyl-(((R)-1-phenyl)amino)hex-2-enoate]
